# Measurements taken from EP3483233A1, “LUBRICANT BASE OIL COMPOSITIONS OF MONO-UNSATURATED DIBASIC ACID ESTERS WITH BRANCHED ALCOHOLS” (ARKEMA FRANCE, priority 2017, dated 2019).
# Legend:
# Assay type in all cases: physicochemical
# [1] = Pour point and cloud point, cooling regime of ASTM D97; conditions: for Cloud point, °C: visual inspection during the same run
# Procedure: Pour points and cloud points were determined using the same thermal cooling regime, as instructed by ASTM D97. The sample sizes were 5 to 15 mL during the measurements.
# Cloud points were determined during the same run by visual inspection of the sample appearance at low temperature. The samples were removed from the freezer every 3°C for visual inspection and, if cloudy, meniscus movement with inversion. The pour point resembled the last measurement, at which the meniscus boundary was still moving within 5 seconds of horizontal inversion. All samples were tested in duplicate.
# In engine oils and hydraulic fluids, low temperature fluidity is primarily determined by pour points [ASTM D97]. Generally, pour points below -30°C are considered sufficient. Some polymer additives, e.g. "Pour Point Depressants" (PPD), are able to improve low temperature fluidity. […] Therefore, initially pour points and cloud points [ASTM D2500 "Standard Test Method for Cloud Point of Petroleum Products and Liquid Fuels"] of α-ω dibasic esters were evaluated and shown in Table 4.
# [2] = Thin film test, oxidative stability (time to insoluble residues and to solidification); conditions: 500 µm thick films at 120°C; for Vapor loss at solidification: at the duration of full film solidification
# Source text: (§1) The exact procedure, used here, has been described in detail by Stoncius, A. et al. in "Volatiles from Thin Film Degradation of Bio-based, Synthetic and Mineral Basestocks", published in Industrial Lubrication & Tribology, 2013, 65 (3) 209-215, 2013, Emerald Group Publishing Edition or by Brazinskiene, D. et al. in "Ester Basestock Vaporisation from Thin Oil Films", published in Lubrication Science, DOI: 10.1002/ls.1372, pp 1-17, 2017, Wiley Edition.
# (§2) Briefly, an oil film of 500 µm thickness was coated on steel coupon and heated at given temperature for specific duration in a forced-draft oven. Afterwards, the volatile losses and insoluble residues were measured gravimetrically.
# Therefore, thin films of commercial basestocks and α-ω dibasic esters were compared by exposing their thin films to 120°C as described by Stoncius, A. et al. in "Volatiles from Thin Film Degradation of Bio-based, Synthetic and Mineral Basestocks" published in Industrial Lubrication & Tribology, 2013, 65 (3), 209-215, Emerald Group Publishing Edition or by Brazinskiene, D. et al. in "Ester Basestock Vaporisation from Thin Oil Films" published in Lubrication Science, DOI: 10.1002/ls.1372, pp 1-17, 2017, Wiley Edition.
# The thin-film method determines how resistant oil is against formation of insoluble residues during oxidation. Degradation durations until initial formation of solid residues and complete solidification directly relate to oxidative stability.
# [3] = Thin film test, volatile losses (500 µm oil film on steel coupon, forced-draft oven, gravimetric); conditions: for Volatile emissions, 16 hrs / Volatile emissions, 36 hrs: 500 µm thick films at 120°C
# Source text: as §1, §2
# As discussed in the prior-art review, volatility can be successfully evaluated in a thin film test as described by Stoncius, A. et al. in "Volatiles from Thin Film Degradation of Bio-based, Synthetic and Mineral Basestocks" published in Industrial Lubrication & Tribology, 2013, 65 (3) 209-215, Emerald Group Publishing Edition or by Brazinskiene, D. et al. in "Ester Basestock Vaporisation from Thin Oil Films" published in Lubrication Science, DOI: 10.1002/ls.1372, pp 1-17, 2017, Wiley Edition. This thin-film method is much better suited for hydraulic fluid applications than NOACK or other tests, which employ 250°C or similar temperatures, related to engine oil applications. Also, the above method accounts for longer term decomposition reactions due to exposure to metal surfaces and oxidation, which is prevalent in hydraulic applications. Therefore, using the thin-film method short-term vapor losses were measured after 16 hrs and decomposition trends were compared after 36 hrs of testing. Heating temperature of 120°C was selected to compare thin films of α,ω dibasic esters with commercial basestocks. Table 5. Volatile emissions, % w/w from 500 µm thick films of α-ω dibasic esters and commercial basestocks at 120°C
# [4] = Kinematic viscosity with capillary Cannon-Fenske viscometers; Viscosity Index calculated per ASTM D2270; conditions: for Viscosity Index: calculated per ASTM D2270 from viscosities at 40°C and 100°C; for Viscosity, mm^2/s at 40°C: kinematic viscosity at 40°C; for Viscosity, mm^2/s at 100°C: kinematic viscosity at 100°C
# Procedure: Kinematic viscosities at 40°C and 100°C were measured using capillary Cannon-Fenske viscometers per ASTM […]. Viscosity Index (the value, describing the rate of thinning with increasing temperature) was calculated per ASTM D2270.
# [5] = Solubility of lubricant additives in the basestocks; conditions: for Solubility of 1% w/w Vanlube 7723: Alkyl dithiocarbamate; for Solubility of 1% w/w Vanlube 7723 / Solubility of 1% w/w Irgalube ML605A / Solubility of 1% w/w Vanlube 7611 M / Solubility of 5% w/w Viscoplex 10-310 / Solubility of 2% w/w Vanlube RI- A / Solubility of 1% w/w Cobratec TT-100: mixed in at 50°C or lower, held longer than a week at room temperature; for Solubility of 1% w/w Irgalube ML605A: Amine and phosphate derivatives; for Solubility of 1% w/w Vanlube 7611 M: Phosphoro dithioate; for Solubility of 5% w/w Viscoplex 10-310: Poly alkyl methacrylate; for Solubility of 2% w/w Vanlube RI- A: Soap and ester derivatives; for Solubility of 1% w/w Cobratec TT-100: Tolyl triazole; for Initial solution appearance: all tested additives blended in, unchanged after 1 week at room temperature
# Procedure: Several typical lubricant additives have been tested for solubility in α-ω dibasic esters of 2-ethyl hexanol 26U18 and 26S12 as well as commercial basestock 350N. The additives were mixed in at temperatures of 50°C or lower and held for longer than a week at room temperature. Table 7. Solubility of lubricant additives, dissolved in α-ω dibasic esters and commercial basestocks
# The additives were selected to represent different chemical categories: soaps, heterocycles, phosphorous derivatives, polymers, etc. Most of these additives are designed to be dissolved in paraffinic mineral oils and synthetic lubricants with some heating. It is often thought that esters are better solvents than mineral oils or synthetic hydrocarbons like poly α-olefins. Therefore, the tested concentrations were much higher than additive proportions for hydraulic fluids, as recommended by the additive manufacturers.
Substance,"Pour point, °C [1]","Cloud point, °C [1]",Full solidification observed [2],Initial residues observed [2],Vapor loss at solidification [2],"Volatile emissions, 16 hrs [3]","Volatile emissions, 36 hrs [3]","volatility ([3]; result in words, thin films at 120°C)",Viscosity Index [4],"Viscosity, mm^2/s at 40°C [4]","Viscosity, mm^2/s at 100°C [4]",Solubility of 1% w/w Vanlube 7723 [5],Solubility of 1% w/w Irgalube ML605A [5],Solubility of 1% w/w Vanlube 7611 M [5],Solubility of 5% w/w Viscoplex 10-310 [5],Solubility of 2% w/w Vanlube RI- A [5],Solubility of 1% w/w Cobratec TT-100 [5],Initial solution appearance [5]
"1,12-di(2-ethylhexyl) dodecanedioate [26S12, reference compound]",-48 °C,-30 °C,655 h,583 h,86% w/w,0.8 % w/w,1.75 % w/w,much lower volatility,147,14.72 mm^2/s,3.72 mm^2/s,soluble,soluble,soluble,soluble,soluble,soluble,bright and clear
"1,18-di(2-ethylhexyl) octadec-9-enedioate [26U18]",-57 °C,-36 °C,320 h,248 h,57% w/w,5.5 % w/w,10.7 % w/w,,197,22.74 mm^2/s,5.53 mm^2/s,soluble,soluble,soluble,soluble,soluble,soluble,bright and clear
